In patent publication US20210300936A1, “PYRAZOLOTRIAZOLOPYRIMIDINE DERIVATIVES AS A2A RECEPTOR ANTAGONIST” (BEIGENE, LTD., priority 2018, published 2021):

molecular target: human A2A receptor (A2AR) (Homo sapiens, UniProt P29274); assay: Luciferase reporter assay (HEK293-A2AR-luc2p/CRE/Hygro cells, 3 nM CGS21680); type: cell-based; settings: 3 nM CGS21680, 5 h incubation
Method: HEK293 cells were maintained in Dulbecco's modified Eagle's medium (DMEM, Gibco) supplemented with 10% fetal bovine serum (FBS, Thermo Scientific), 100 units/mL penicillin (Gibco), and 0.1 mg/mL streptomycin (Gibco) in a humidified 37° C. environment with 5% C02. Plasmid encoding wild-type human A2A receptor (A2AR) (in pcDNA3.1) was synthesized by Genscript (Nanjing, China). Transfection of the plasmids was performed in 6-well plates with 4×10^5 cells using Lipofectamin 2000 (ThermoFisher Scientific) according to the instruction of the manufacturer. Cell clones that stably express A2AR were established and maintained in the same complete medium as the HEK293 cells in addition of G-418 (Gibico). Expression level of A2AR in each single cell clone was determined using immunoblotting and FACS method. HEK293-A2AR stable cells were then transfected with pGL4.29[luc2P/CRE/Hygro] (Promega) luciferase reporter plasmid for establishing the HEK293-A2AR-luc2p/CRE/Hygro stable cell line.
HEK293-A2AR-luc2p/CRE/Hygro cells were seeded at a density of 5,000 cells/well in DMEM with 1% FBS and 1 U/mL adenosine deaminase (ADA) (Sigma). After 18 h, the cells were treated with 3 nM CGS21680 plus a series dilution of A2AR antagonist, the compounds disclosed herein at the concentration of 0.1˜10000 nM, prepared in DMEM with 1% FBS. After 5 h incubation, the luciferase activity in cells were measured using the Bright-Glo Luciferase Assay System (Promega) according to manufacturer's instructions. The luminescence signal was measured using a PHERAstar FS plate reader (BMG Labtech). […] Maximal luminescence intensity was determined in the presence of 3 nM CGS21680 and was set as 100%. The IC50 value was calculated from a dose dependent inhibition curve across the range of compound concentrations.

Chain of human A2A receptor (A2AR) (P29274 whole entry): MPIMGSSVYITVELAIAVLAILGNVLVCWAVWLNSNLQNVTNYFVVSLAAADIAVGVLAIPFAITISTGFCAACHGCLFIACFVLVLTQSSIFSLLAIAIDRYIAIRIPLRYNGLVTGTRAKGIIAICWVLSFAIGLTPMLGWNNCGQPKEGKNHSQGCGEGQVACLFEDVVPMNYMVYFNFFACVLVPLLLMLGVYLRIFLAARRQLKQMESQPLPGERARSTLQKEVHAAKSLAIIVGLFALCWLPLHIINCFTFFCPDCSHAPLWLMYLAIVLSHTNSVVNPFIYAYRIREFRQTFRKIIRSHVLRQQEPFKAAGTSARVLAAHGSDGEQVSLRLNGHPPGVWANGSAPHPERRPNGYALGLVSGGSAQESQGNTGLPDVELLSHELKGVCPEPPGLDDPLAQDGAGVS

Row | IC50 | Structure (SMILES)
1 | 5.7 nM | COCCOc1ccc2c(c1)CN(C(=O)C(c1ccccc1)n1ncc3c1nc(N)n1nc(-c4ccco4)nc31)CC2 (centres unmarked) [Compound B14, 2-(5-amino-2-(furan-2-yl)-7H-pyrazolo[4,3-e][1,2,4]triazolo[1,5-c]pyrimidin-7-yl)-1-(7-(2-methoxyethoxy)-3,4-dihydroisoquinolin-2(1H)-yl)-2-phenylethan-1-one]
2 | 39.8 nM | COCCOCCOc1ccc(N2CCN(C(=O)C(C)n3cc4c(nc(N)n5nc(-c6ccco6)nc45)n3)CC2)cc1 (centres unmarked) [Compound C9, 2-(5-amino-2-(furan-2-yl)-8H-pyrazolo[4,3-e][1,2,4]triazolo[1,5-c]pyrimidin-8-yl)-1-(4-(4-(2-(2-methoxyethoxy)ethoxy)phenyl)piperazin-1-yl)propan-1-one]
3 | 24.9 nM | CC(C(=O)N1CCCC1)(c1ccccc1)n1ncc2c1nc(N)n1nc(-c3ccco3)nc21 (centres unmarked) [Compound B23, 2-(5-amino-2-(furan-2-yl)-7H-pyrazolo[4,3-e][1,2,4]triazolo[1,5-c]pyrimidin-7-yl)-2-phenyl-1-(pyrrolidin-1-yl)propan-1-one]
4 | 132 nM | CCCC(C(=O)N1CCN(c2ccc(OCCOC)cc2)CC1)n1cc2c(nc(N)n3nc(-c4ccco4)nc23)n1 (centres unmarked) [Compound C5, 2-(5-amino-2-(furan-2-yl)-8H-pyrazolo[4,3-e][1,2,4]triazolo[1,5-c]pyrimidin-8-yl)-1-(4-(4-(2-methoxyethoxy)phenyl)piperazin-1-yl)pentan-1-one]
5 | 337 nM | COCCOCCOc1ccc(N2CCN(C(=O)C(C(C)C)n3cc4c(nc(N)n5nc(-c6ccco6)nc45)n3)CC2)cc1 (centres unmarked) [Compound C12, 2-(5-amino-2-(furan-2-yl)-8H-pyrazolo[4,3-e][1,2,4]triazolo[1,5-c]pyrimidin-8-yl)-1-(4-(4-(2-(2-methoxyethoxy)ethoxy)phenyl)piperazin-1-yl)-3-methylbutan-1-one]
6 | 2.8 nM | Nc1nc2c(cnn2C(C(=O)N2CCc3ncccc3C2)c2ccccc2)c2nc(-c3ccco3)nn12 (centres unmarked) [Compound B13, 2-(5-amino-2-(furan-2-yl)-7H-pyrazolo[4,3-e][1,2,4]triazolo[1,5-c]pyrimidin-7-yl)-1-(7,8-dihydro-1,6-naphthyridin-6(5H)-yl)-2-phenylethan-1-one]
7 | 88.4 nM | COCCOc1ccc(N2CCN(C(=O)C(CC(C)C)n3cc4c(nc(N)n5nc(-c6ccco6)nc45)n3)CC2)cc1 (centres unmarked) [Compound C17, 2-(5-amino-2-(furan-2-yl)-8H-pyrazolo[4,3-e][1,2,4]triazolo[1,5-c]pyrimidin-8-yl)-1-(4-(4-(2-methoxyethoxy)phenyl)piperazin-1-yl)-4-methylpentan-1-one]

Second part, the molecule before the results:

Row | Structure (SMILES) | IC50
8 | CCCC(C(=O)N1CCN(c2ccc(OCCN(C)C)cc2)CC1)n1ncc2c1nc(N)n1nc(-c3ccco3)nc21 (centres unmarked) [Compound A39, 2-(5-amino-2-(furan-2-yl)-7H-pyrazolo[4,3-e][1,2,4]triazolo[1,5-c]pyrimidin-7-yl)-1-(4-(4-(2-(dimethylamino)ethoxy)phenyl)piperazin-1-yl)pentan-1-one] | 5.3 nM
9 | COCCOCCOc1ccc(N2CCN(C(=O)C(C)n3ncc4c3nc(N)n3nc(-c5ccco5)nc43)CC2)cc1 (centres unmarked) [Compound A9, 2-(5-amino-2-(furan-2-yl)-7H-pyrazolo[4,3-e][1,2,4]triazolo[1,5-c]pyrimidin-7-yl)-1-(4-(4-(2-(2-methoxyethoxy)ethoxy)phenyl)piperazin-1-yl)propan-1-one] | 59.1 nM
10 | CN(C)C(=O)c1cccc(N2CCN(C(=O)C(C)(c3ccccc3)n3ncc4c3nc(N)n3nc(-c5ccco5)nc43)CC2)c1 (centres unmarked) [Compound A88, 3-(4-(2-(5-amino-2-(furan-2-yl)-7H-pyrazolo[4,3-e][1,2,4]triazolo[1,5-c]pyrimidin-7-yl)-2-phenylpropanoyl)piperazin-1-yl)-N,N-dimethylbenzamide] | 7 nM
11 | CN(C)C(=O)c1ccccc1N1CCN(C(=O)C(C)(c2ccccc2)n2ncc3c2nc(N)n2nc(-c4ccco4)nc32)CC1 (centres unmarked) [Compound A96, 2-(4-(2-(5-amino-2-(furan-2-yl)-7H-pyrazolo[4,3-e][1,2,4]triazolo[1,5-c]pyrimidin-7-yl)-2-phenylpropanoyl)piperazin-1-yl)-N,N-dimethylbenzamide] | 13.7 nM
12 | CCCC(C(=O)N1CCN(c2ccc(OCCN(C)C)cc2)CC1)n1ncc2c1nc(N)n1nc(-c3ccco3)nc21 (single isomer, unassigned) [Compound A39a] | 127 nM
13 | C[C@](C(=O)N1CCN(c2ccc(OCCCN3CCOCC3)cc2)CC1)(c1ccccc1)n1ncc2c1nc(N)n1nc(-c3ccco3)nc21 [Compound A76b, (R)-2-(5-amino-2-(furan-2-yl)-7H-pyrazolo[4,3-e][1,2,4]triazolo[1,5-c]pyrimidin-7-yl)-1-(4-(4-(3-morpholinopropoxy)phenyl)piperazin-1-yl)-2-phenylpropan-1-one] | 3.9 nM
14 | COCCOc1ccc(N2CCN(C(=O)C(C3CCNCC3)n3ncc4c3nc(N)n3nc(-c5ccco5)nc43)CC2)cc1 (centres unmarked) [Compound A58, 2-(5-amino-2-(furan-2-yl)-7H-pyrazolo[4,3-e][1,2,4]triazolo[1,5-c]pyrimidin-7-yl)-1-(4-(4-(2-methoxyethoxy)phenyl)piperazin-1-yl)-2-(piperidin-4-yl)ethan-1-one] | > 10000 nM
15 | COCCOc1ccc(N2CCN(C(=O)C(C)(c3ccccc3)n3ncc4c3nc(N)n3nc(-c5ccco5)nc43)C[C@@H]2C)cc1 (stereo partly drawn) [Compound A74, 2-(5-amino-2-(furan-2-yl)-7H-pyrazolo[4,3-e][1,2,4]triazolo[1,5-c]pyrimidin-7-yl)-1-((S)-4-(4-(2-methoxyethoxy)phenyl)-3-methylpiperazin-1-yl)-2-phenylpropan-1-one] | 5.1 nM
16 | CC(C)CC(C(=O)N1CCN(c2ccc(F)cc2F)CC1)n1ncc2c1nc(N)n1nc(-c3ccco3)nc21 (centres unmarked) [Compound A22, 2-(5-amino-2-(furan-2-yl)-7H-pyrazolo[4,3-e][1,2,4]triazolo[1,5-c]pyrimidin-7-yl)-1-(4-(2,4-difluorophenyl)piperazin-1-yl)-4-methylpentan-1-one] | 1.5 nM
17 | COCCOc1ccc(N2CCN(C(=O)C(c3ccccc3)n3ncc4c3nc(N)n3nc(-c5ccco5)nc43)[C@H](C)C2)cc1 (stereo partly drawn) [Compound A50, 2-(5-amino-2-(furan-2-yl)-7H-pyrazolo[4,3-e][1,2,4]triazolo[1,5-c]pyrimidin-7-yl)-1-((R)-4-(4-(2-methoxyethoxy)phenyl)-2-methylpiperazin-1-yl)-2-phenylethan-1-one] | 1.5 nM
18 | COCCOc1ccc(N2CCN(C(=O)C(c3ccccc3)n3ncc4c3nc(N)n3nc(-c5ccco5)nc43)C[C@H]2C)cc1 (stereo partly drawn) [Compound A47, 2-(5-amino-2-(furan-2-yl)-7H-pyrazolo[4,3-e][1,2,4]triazolo[1,5-c]pyrimidin-7-yl)-1-((R)-4-(4-(2-methoxyethoxy)phenyl)-3-methylpiperazin-1-yl)-2-phenylethan-1-one] | 2.8 nM
19 | C[C@](C(=O)N1CCN(c2ccc(F)cc2)CC1)(c1ccccc1)n1ncc2c1nc(N)n1nc(-c3ccco3)nc21 [Compound A70b, (R)-2-(5-amino-2-(furan-2-yl)-7H-pyrazolo[4,3-e][1,2,4]triazolo[1,5-c]pyrimidin-7-yl)-1-(4-(4-fluorophenyl)piperazin-1-yl)-2-phenylpropan-1-one] | 3.4 nM
20 | COCCOc1ccc(N2CCN(C(=O)C(C3CCN(C)CC3)n3ncc4c3nc(N)n3nc(-c5ccco5)nc43)CC2)cc1 (centres unmarked) [Compound A60, 2-(5-amino-2-(furan-2-yl)-7H-pyrazolo[4,3-e][1,2,4]triazolo[1,5-c]pyrimidin-7-yl)-1-(4-(4-(2-methoxyethoxy)phenyl)piperazin-1-yl)-2-(1-methylpiperidin-4-yl)ethan-1-one] | > 10000 nM
21 | CC(C(=O)N1CCN(c2ccc(C(=O)N3CCCCC3)cc2)CC1)(c1ccccc1)n1ncc2c1nc(N)n1nc(-c3ccco3)nc21 (centres unmarked) [Compound A102, 2-(5-amino-2-(furan-2-yl)-7H-pyrazolo[4,3-e][1,2,4]triazolo[1,5-c]pyrimidin-7-yl)-2-phenyl-1-(4-(4-(piperidine-1-carbonyl)phenyl)piperazin-1-yl)propan-1-one] | 9.2 nM
22 | CC(C(=O)N1CCN(c2ccc(OCCCN3CCCCC3)cc2)CC1)(c1ccccc1)n1ncc2c1nc(N)n1nc(-c3ccco3)nc21 (centres unmarked) [Compound A85, 2-(5-amino-2-(furan-2-yl)-7H-pyrazolo[4,3-e][1,2,4]triazolo[1,5-c]pyrimidin-7-yl)-2-phenyl-1-(4-(4-(3-(piperidin-1-yl)propoxy)phenyl)piperazin-1-yl)propan-1-one] | 11.6 nM
23 | CC(C(=O)N1CCN(c2ccc(C(=O)NCC3(O)COC3)cc2)CC1)(c1ccccc1)n1ncc2c1nc(N)n1nc(-c3ccco3)nc21 (centres unmarked) [Compound A83, 4-(4-(2-(5-amino-2-(furan-2-yl)-7H-pyrazolo[4,3-e][1,2,4]triazolo[1,5-c]pyrimidin-7-yl)-2-phenylpropanoyl)piperazin-1-yl)-N-((3-hydroxyoxetan-3-yl)methyl)benzamide] | 3.7 nM
